# Assays:
# [1] = target: T1, β5 subunit of the human constitutive proteasome (CPS) (Homo sapiens, UniProt P28074); assay: β5 inhibition assay, human constitutive proteasome (Suc-LLVY-AMC); assay type: biochemical; conditions: IC50 class, Suc-LLVY-AMC substrate
# T1 construct: purchased Boston Biochem E-360
# Protocol: The enzymatic activity of the β5 subunit of the human constitutive proteasome (CPS) is analyzed. In another assay, which differs from the assay of the human constitutive proteasome only in using the human immunoproteasome (IPS) the enzymatic activity of the β5 subunit of the human immunoproteasome (IPS) is analyzed. […] Inhibition is indicated as IC50 [nM] (“-”=not measured).
# HT-29 cells = assay: CellTiter-Glo luminescent cell viability assay with HT-29 cells (72h incubation); assay type: cell-based, human; conditions: Homo sapiens, HT-29, HT29 cells, read-out: CTG HT29
# Summary of the method: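 400 cells per well in DMEM/10% FCS were dosed after 24 h and kept 72 h at 37 °C, 5% CO2. ATP-based luminescence (CellTiter-Glo) normalized to DMSO and 10 μM staurosporine controls; IC50 by dose-response fit.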
# [2] = system: A549 (human lung carcinoma cell line); assay: Glo assay of A549 cells (Table 3; ProteasomeGlo plating scheme); assay type: cell-based; conditions: Homo sapiens; A549 cells; read-out: PGLo A549
# Summary of the method: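 Compound treatment lasts 105 minutes at 37° C. under 5% CO2. Suc-LLVY-Glo substrate premixed with detection reagent (60 min at room temperature) is then added directly to the cells, and luminescence after 10-15 min in the dark gives the IC50 in nM.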
Structure (SMILES),IC50 [1],IC50 (HT-29 cells),IC50 [2]
"Cc1ccc2cc1CNC(=O)[C@H](CCc1ccccc1)NC(=O)[C@@H](NC(=O)OCc1ccccc1)CC(=O)N1CC(CCO2)CC2CCCCC21 (stereo partly drawn) [Compound 314, benzyl ((9S,12S)-5^4-methyl-8,11,14-trioxo-9-phenethyl-11,12,13,14,14a,15,16,17,18,18a-decahydro-4-oxa-7,10-diaza-1(3,1)-quinolina-5(1,3)-benzenacyclotetradecaphane-12-yl)carbamate]",< 0.1 µM,< 0.1 µM,< 0.1 µM
"Cc1ccc2cc1CNC(=O)[C@H](CCc1ccccc1)NC(=O)[C@@H](NC(=O)OCc1ccccc1)CC(=O)N1CC(C)CC(CCO2)C1 (stereo partly drawn) [Compound 337, benzyl ((9S,12S)-1^5,5^4-dimethyl-8,11,14-trioxo-9-phenethyl-4-oxa-7,10-diaza-1(3,1)-piperidina-5(1,3)-benzenacyclotetradecaphane-12-yl)carbamate]",< 0.1 µM,< 0.1 µM,0.1 to 0.5 µM
"Cc1ccc2cc1CNC(=O)[C@H](CCc1ccccc1)NC(=O)[C@@H](NC(=O)OCc1ccccc1)CCCC(=O)NCCCCO2 [Compound 322, benzyl ((12S,15S)-1^4-methyl-8,13, 16-trioxo-15-phenethyl-2-oxa-7,14,17-triaza-1(1,3)-benzenacyclooctadecaphane-12-yl)carbamate]",< 0.1 µM,0.1 to 0.5 µM,1 to 5 µM
"Cc1ccc2cc1CNC(=O)C(CCc1cnc3nccnc3c1)NC(=O)[C@@H](NC(=O)OCc1ccccc1)CC(=O)N1CCCC(CCO2)C1 (stereo partly drawn) [Compound 505, benzyl ((12S)-5^4-methyl-8,11,14-trioxo-9-(2-(pyrido[2,3-b]pyrazin-7-yl)ethyl)-4-oxa-7,10-diaza-1(3,1)-piperidina-5(1,3)-benzenacyclotetradecaphane-12-yl)carbamate]",< 0.1 µM,< 0.1 µM,< 0.1 µM
"Cc1cc2cc(c1C)CNC(=O)C(c1cnn(C)c1)NC(=O)CCC(=O)N1CCCC(CCO2)C1 (centres unmarked) [Compound 355, 5^4,5^5-dimethyl-9-(1-methyl-1H-pyrazol-4-yl)-4-oxa-7,10-diaza-1(3,1)-piperidina-5(1,3)-benzenacyclotetradecaphane-8,11,14-trione]",1 to 5 µM,1 to 5 µM,> 5 µM
"CC(=O)N[C@H]1CCC(=O)N2CC3CC(Oc4ccc(C)c(c4)CNC(=O)[C@H](CCc4ccccc4)NC1=O)C3C2 (some centres unmarked) [Compound 299, N-(3^4-methyl-6,9,13-trioxo-7-phenethyl-2-oxa-13,5,8-triaza-1(6,3)-bicyclo[3.2.0]heptana-3(1,3)-benzenacyclotridecaphane-10-yl)acetamide]",> 5 µM,0.1 to 0.5 µM,> 5 µM
Cc1ccc2cc1CNC(=O)[C@H](CCc1ccccc1)NC(=O)[C@@H](NC(=O)OCc1ccccc1)CC(=O)N1CCCC3(CC(C3)O2)C1 [Compound 300],0.1 to 0.5 µM,0.1 to 0.5 µM,1 to 5 µM
"Cc1ccc2cc1CNC(=O)C(CCc1cnccn1)NC(=O)[C@@H](NC(=O)Cc1ccc(N)cc1F)CC(=O)N1CCCC(CCO2)C1 (stereo partly drawn) [Compound 372, 2-(4-amino-2-fluorophenyl)-N-((9S,12S)-5^4-methyl-8,11,14-trioxo-9-(2-(pyrazin-2-yl)ethyl)-4-oxa-7,10-diaza-1(3,1)-piperidina-5(1,3)-benzenacyclotetradecaphane-12-yl) acetamide]",< 0.1 µM,< 0.1 µM,< 0.1 µM
"Cc1ccc2cc1CNC(=O)[C@H](CCc1ccccc1)NC(=O)[C@@H](NC(=O)C(C)(C)C)CC(=O)N1CCCC(CCO2)C1 (stereo partly drawn) [Compound 27, N-((9S,12S)-5^4-methyl-8,11,14-trioxo-9-phenethyl-4-oxa-7,10-diaza-1(3,1)-piperidina-5(1,3)-benzenacyclotetradecaphane-12-yl)pivalamide]",< 0.1 µM,< 0.1 µM,< 0.1 µM
"CC(=O)N[C@H]1CC(=O)N2CCCC(CCOc3ccc(C)c(c3)CNC(=O)C(CCc3ccncc3)NC1=O)C2 (stereo partly drawn) [Compound 551, N-((12S)-5^4-methyl-8,11,14-trioxo-9-(2-(pyridin-4-yl)ethyl)-4-oxa-7,10-diaza-1(3,1)-piperidina-5(1,3)-benzenacyclotetradecaphane-12-yl)acetamide]",< 0.1 µM,< 0.1 µM,< 0.1 µM
"Cc1ccc2cc1CNC(=O)[C@H](CCc1ccccc1)NC(=O)[C@@H](NC(=O)OCc1ccccc1)CCCC(=O)N1CCCC3(CC(C3)O2)C1 [Compound 283, benzyl ((7S,10S)-34-methyl-6,9,14-trioxo-7-phenethyl-2-oxa-5,8-diaza-15(3,1)-piperidina-3(1,3)-benzena-1(1,3)-cyclobutanapentadecaphane-10-yl)carbamate]",0.5 to 1 µM,0.1 to 0.5 µM,1 to 5 µM
"COC(C(=O)N[C@H]1CC(=O)N2CCCC(CCOc3ccc(C)c(c3)CNC(=O)[C@H](CCc3ccccc3)NC1=O)C2)c1ccc(N)cc1 (stereo partly drawn) [Compound 326, 2-(4-aminophenyl)-2-methoxy-N-((9S,12S)-5^4-methyl-8,11,14-trioxo-9-phenethyl-4-oxa-7,10-diaza-1(3,1)-piperidina-5(1,3)-benzenacyclotetradecaphane-12-yl)acetamide]",< 0.1 µM,< 0.1 µM,< 0.1 µM
"Cc1ccc2cc1CNC(=O)C(CCc1ccccc1)NC(=O)[C@@H](NC(=O)OCc1ccccc1)CC(=O)N1CCCC(CCO2)C1 (stereo partly drawn) [Compound 503, benzyl ((12S)-9-phenethyl-5^4-methyl-8,11,14-trioxo-4-oxa-7,10-diaza-1(3,1)-piperidina-5(1,3)-benzenacyclotetradecaphane-12-yl)carbamate]",< 0.1 µM,< 0.1 µM,0.1 to 0.5 µM
"COc1cccc(CC(=O)N[C@H]2CC(=O)N3CCCC(CCOc4ccc(C)c(c4)CNC(=O)C(c4cnn(C)c4)NC2=O)C3)c1 (stereo partly drawn) [Compound 362, 2-(3-methoxyphenyl)-N-((12S)-5^4-methyl-9-(1-methyl-1H-pyrazol-4-yl)-8,11,14-trioxo-4-oxa-7,10-diaza-1(3,1)-piperidina-5(1,3)-benzenacyclotetradecaphane-12-yl)acetamide]",< 0.1 µM,< 0.1 µM,< 0.1 µM
"Cc1ccc2cc1CNC(=O)C(CCc1ccncc1)NC(=O)[C@@H](NC(=O)Cc1nnc(N)s1)CC(=O)N1CCCC(CCO2)C1 (stereo partly drawn) [Compound 342, 2-(5-amino-1,3,4-thiadiazol-2-yl)-N-((12S)-5^4-methyl-8,11,14-trioxo-9-(2-(pyridin-4-yl)ethyl)-4-oxa-7,10-diaza-1(3,1)-piperidina-5(1,3)-benzenacyclotetradecaphane-12-yl)acetamide]",< 0.1 µM,< 0.1 µM,< 0.1 µM
"Cc1nc(C2NC(=O)[C@@H](NC(=O)OCc3ccccc3)CC(=O)N3CCCC(CCOc4ccc(C)c(c4)CNC2=O)C3)co1 (stereo partly drawn) [Compound 512, benzyl ((12S)-5^4-methyl-9-(2-methyloxazol-4-yl)-8,11,14-trioxo-4-oxa-7,10-diaza-1(3,1)-piperidina-5(1,3)-benzenacyclotetradecaphane-12-yl)carbamate]",< 0.1 µM,< 0.1 µM,< 0.1 µM
"Cc1ccc2cc1CNC(=O)[C@H](CCc1ccccc1)NC(=O)[C@@H](NC(=O)OCc1ccccc1)CCC(=O)N1CCC(CCO2)C1 (stereo partly drawn) [Compound 350, benzyl ((9S,12S)-5^4-methyl-8,11,15-trioxo-9-phenethyl-4-oxa-7,10-diaza-1(3,1)-pyrrolidina-5(1,3)-benzenacyclopentadecaphane-12-yl)carbamate]",< 0.1 µM,< 0.1 µM,< 0.1 µM
"CC(=O)N[C@H]1CC(=O)N2CCCC(CCOc3ccc(C)c(c3)CNC(=O)C(c3cc(C)sn3)NC1=O)C2 (stereo partly drawn) [Compound 556, N-((12S)-5^4-methyl-9-(5-methylisothiazol-3-yl)-8,11,14-trioxo-4-oxa-7,10-diaza-1(3,1)-piperidina-5(1,3)-benzenacyclotetradecaphane-12-yl)acetamide]",< 0.1 µM,< 0.1 µM,< 0.1 µM
"Cc1ccc2cc1CNC(=O)[C@H](CCc1ccccc1)NC(=O)[C@@H](NC(=O)c1nc3ccccc3[nH]1)CC(=O)N1CCCC(CCO2)C1 (stereo partly drawn) [Compound 31, N-((9S,12S)-5^4-methyl-8,11,14-trioxo-9-phenethyl-4-oxa-7,10-diaza-1(3,1)-piperidina-5(1,3)-benzenacyclotetradecaphane-12-yl)-1H-benzo[d] imidazole-2-carboxamide]",< 0.1 µM,< 0.1 µM,< 0.1 µM
"CC(=O)N[C@H]1CC(=O)N2CCCC(CCOc3ccc(C)c(c3)CNC(=O)C(c3cnn(-c4ccccc4)c3)NC1=O)C2 (stereo partly drawn) [Compound 559, N-((12S)-5^4-methyl-8,11,14-trioxo-9-(1-phenyl-1H-pyrazol-4-yl)-4-oxa-7,10-diaza-1(3,1)-piperidina-5(1,3)-benzenacyclotetradecaphane-12-yl)acetamide]",< 0.1 µM,< 0.1 µM,0.1 to 0.5 µM
"Cc1ccc2cc1CNC(=O)[C@H](CCc1ccccc1)NC(=O)[C@@H](NC(=O)Cc1ccccc1C)CC(=O)N1CCCC(CCO2)C1 (stereo partly drawn) [Compound 373, N-((9S,12S)-5^4-methyl-8,11,14-trioxo-9-phenethyl-4-oxa-7,10-diaza-1(3,1)-piperidina-5(1,3)-benzenacyclotetradecaphane-12-yl)-2-(o-tolyl)acetamide]",< 0.1 µM,,< 0.1 µM

# Reference: US20240415819A1, “MACROCYCLIC COMPOUNDS AS PROTEASOME SUBUNIT BETA TYPE-5 INHIBITORS” (Lead Discovery Center GmbH, priority 2021, published 2024)
